Biological target: HCV replicon
Test: HCV replicon assay (luciferase)
Format: cell-based, Hepatitis C virus (HCV)
Conditions: 5-2 Luc replicon cells, 24 hours with compound, luciferase emission; first symbol of Replicon/Western
Text: In one embodiment, the inhibitory activity of the compounds can be confirmed in a replicon assay that assesses the ability of a test compound to block or inhibit HCV replication in replicon cells. One example of a suitable replicon assay is the liver cell-line Huh 7-based replicon assay described in Lohmann et al., 1999, Science 285:110-113. A specific example of this replicon assay which utilizes luciferase translation is provided in the Examples Section. In one embodiment of this assay, the amount of test compound that yields a 50% reduction in translation as compared to a control cell (IC50) may be determined.
The inhibitory activity of certain exemplary compounds of the invention was confirmed using an HCV replicon assay. The HCV replicon can include such features as the HCV 5′ untranslated region including the HCV IRES, the HCV 3′ untranslated region, selected HCV genes encoding HCV polypeptides, selectable markers, and a reporter gene such as luciferase, GFP, etc. In the assay, actively dividing 5-2 Luc replicon-comprising cells (obtained from Rolf Bartenschlager; see Lohmann et al., 1999, Science 285:110-113) were seeded at a density of between about 5,000 and 7,500 cells/well onto 96 well plates (about 90 μl of cells per well) and incubated at 37° C. and 5% CO2 for 24 hours. Then, the test compound (in a volume of about 10 μl) was added to the wells at various concentrations and the cells were incubated for an additional 24 hours before luciferase assay. The media was aspirated from each well and Bright-Glo (Promega, Madison, Wis.) luciferase assay reagents were added to each well according to the manufacturer's instructions. Briefly, the Bright-Glo reagent was diluted 1:1 with PBS and 100 μl of diluted reagent was added to each well. After 5 min of incubation at room temperature, luciferin emission was quantified with a luminometer. In this assay, the amount of test compound that yielded a 50% reduction in luciferase emission (IC50) was determined.

## 2,2-Dichloro-N-[3-[3-[2,6-dimethyl-4-(N-morpholino-2-ethyleneoxy)phenyl]-5-isoxazolyl]phenyl] Acetamide [Compound 23]
  IC50: ≤ 10 µM

## CN(C)C1CCN(c2cccc(Cl)c2-c2cc(-c3cccc(NC(=O)C(Cl)Cl)c3)on2)C1 (racemic) [Compound 132, (±)-2,2-Dichloro-N-[3-[3-[2-chloro-6-(3-dimethylamino-N-pyrrolidino)phenyl]-5-isoxazolyl]-phenyl] Acetamide]
  IC50: ≤ 10 µM

## O=C(Nc1cccc(-c2cc(-c3c(Cl)cccc3Cl)no2)c1)C(Br)Br [Compound 29, 2,2-Dibromo-N-[3-[3-(2,6-dichlorophenyl)-5-isoxazolyl]phenyl] Acetamide]
  IC50: ≤ 10 µM

## Cc1cccc(Cl)c1-c1cc(-c2cccc(NC(=O)C(Cl)Cl)c2)on1 [Compound 31, 2,2-Dichloro-N-[3-[3-(2-chloro-6-methylphenyl)-5-isoxazolyl]phenyl] Acetamide]
  IC50: ≤ 10 µM

## O=C(Nc1cccc(-c2cc(-c3ccccc3C(F)(F)F)no2)c1)C(Cl)Cl [Compound 33, 2,2-Dichloro-N-[3-[3-(2-trifluoromethylphenyl)-5-isoxazolyl]phenyl] Acetamide]
  IC50: ≤ 10 µM

## O=C(Nc1cccc(-c2cc(-c3c(O)cccc3C(F)(F)F)no2)c1)C(Cl)Cl [Compound 35, 2,2-Dichloro-N-[3-[3-(2-hydroxy-6-trifluoromethylphenyl)-5-isoxazolyl]phenyl] Acetamide]
  IC50: ≤ 10 µM

## CC(C)c1cccc(Cl)c1-c1cc(-c2cccc(NC(=O)C(Cl)Cl)c2)on1 [Compound 39, 2,2-Dichloro-N-[3-[3-(2-chloro-6-isopropylphenyl)-5-isoxazolyl]phenyl] Acetamide]
  IC50: ≤ 10 µM

## O=C(Nc1cccc(-c2cc(-c3c(F)cccc3C(F)(F)F)no2)c1)C(Cl)Cl [Compound 41, 2,2-Dichloro-N-[3-[3-(2-fluoro-6-trifluoromethylphenyl)-5-isoxazolyl]phenyl] Acetamide]
  IC50: ≤ 10 µM

## COc1cccc(F)c1-c1cc(-c2cccc(NC(=O)C(Cl)Cl)c2)on1 [Compound 43, 2,2-Dichloro-N-[3-[3-(2-fluoro-6-methoxyphenyl)-5-isoxazolyl]phenyl] Acetamide]
  IC50: ≤ 10 µM

## O=C(Nc1cccc(-c2cc(-c3ccccc3OC(F)F)no2)c1)C(Cl)Cl [Compound 45, 2,2-Dichloro-N-[3-[3-(2-difluoromethoxyphenyl)-5-isoxazolyl]phenyl] Acetamide]
  IC50: ≤ 10 µM

## Cc1cccc(C)c1-c1cc(-c2cccc(NC(=O)C(Cl)Cl)c2)on1 [Compound 47, 2,2-Dichloro-N-[3-[3-(2,6-dimethylphenyl)-5-isoxazolyl]phenyl] Acetamide]
  IC50: ≤ 10 µM

## O=C(Nc1cccc(-c2cc(-c3c(F)cccc3I)no2)c1)C(Cl)Cl [Compound 49, 2,2-Dichloro-N-[3-[3-(2-fluoro-6-iodophenyl)-5-isoxazolyl]phenyl] Acetamide]
  IC50: ≤ 10 µM

## Cc1ccc(Cl)c(-c2cc(-c3cccc(NC(=O)C(Cl)Cl)c3)on2)c1F [Compound 51, 2,2-Dichloro-N-[3-[3-(6-chloro-2-fluoro-3-methylphenyl)-5-isoxazolyl]phenyl] Acetamide]
  IC50: ≤ 10 µM

## O=C(Nc1cccc(-c2cc(-c3c(F)ccc(F)c3Cl)no2)c1)C(Cl)Cl [Compound 53, 2,2-Dichloro-N-[3-[3-(2-chloro-3,6-difluorophenyl)-5-isoxazolyl]phenyl] Acetamide]
  IC50: ≤ 10 µM

## CN(C(=O)C(Cl)Cl)c1cccc(-c2cc(-c3c(Cl)cccc3Cl)no2)c1 [Compound 57, 2,2-Dicbloro-N-[3-[3-(2,6-dichlorophenyl)-5-isoxazolyl]phenyl]-N-methyl Acetamide]
  IC50: ≤ 10 µM

## CCOc1ccccc1-c1cc(-c2cccc(NC(=O)C(Cl)Cl)c2)on1 [Compound 61, 2,2-Dichloro-N-[3-[3-(2-ethoxyphenyl)-5-isoxazolyl]phenyl] Acetamide]
  IC50: ≤ 10 µM

## CC(C)c1ccccc1-c1cc(-c2cccc(NC(=O)C(Cl)Cl)c2)on1 [Compound 63, 2,2-Dichloro-N-[3-[3-(2-isopropylphenyl)-5-isoxazolyl]phenyl] Acetamide]
  IC50: ≤ 10 µM

## CN(C)c1cc(Cl)c(-c2cc(-c3cccc(NC(=O)C(Cl)Cl)c3)on2)c(Cl)c1 [Compound 65, 2,2-Dichloro-N-[3-[3-(2,6-dichloro-4-dimethylaminophenyl)-5-isoxazolyl]phenyl] Acetamide]
  IC50: ≤ 10 µM

## O=C(CCl)Nc1cccc(-c2cc(-c3c(Cl)cccc3Cl)no2)c1 [Compound 67, 2-Chloro-N-[3-[3-(2,6-dichlorophenyl)-5-isoxazolyl]phenyl] Acetamide]
  IC50: ≤ 10 µM

## O=C(Nc1cccc(-c2cc(-c3c(Cl)cc(OCCCN4CCOCC4)cc3Cl)no2)c1)C(Cl)Cl [Compound 73, 2,2-Dichloro-N-[3-[3-[2,6-dichloro-4-(N-morpholinopropyleneoxy)phenyl]-5-isoxazolyl]-phenyl] Acetamide]
  IC50: ≤ 10 µM

## COc1cccc(C(F)(F)F)c1-c1cc(-c2cccc(NC(=O)C(Cl)Cl)c2)on1 [Compound 77, 2,2-Dichloro-N-[3-[3-(2-methoxy-6-trifluoromethylphenyl)-5-isoxazolyl]phenyl] Acetamide]
  IC50: ≤ 10 µM

## O=C(Nc1cccc(-c2cc(-c3c(Cl)cccc3C3CC3)no2)c1)C(Cl)Cl [Compound 79, 2,2-Dichloro-N-[3-[3-(2-chloro-6-cyclopropylphenyl)-5-isoxazolyl]phenyl] Acetamide]
  IC50: ≤ 10 µM

## COc1cccc(Cl)c1-c1cc(-c2cccc(NC(=O)C(Cl)Cl)c2)on1 [Compound 81, 2,2-Dichloro-N-[3-[3-(2-chloro-6-methoxyphenyl)-5-isoxazolyl]phenyl] Acetamide]
  IC50: ≤ 10 µM

## O=C(Nc1cccc(-c2cc(-c3c(O)cccc3Cl)no2)c1)C(Cl)Cl [Compound 83, 2,2-Dichloro-N-[3-[3-(2-chloro-6-hydroxyphenyl)-5-isoxazolyl]phenyl] Acetamide]
  IC50: ≤ 10 µM

## Cc1cccc(C(F)(F)F)c1-c1cc(-c2cccc(NC(=O)C(Cl)Cl)c2)on1 [Compound 85, 2,2-Dichloro-N-[3-[3-(2-methyl-6-trifluoromethylphenyl)-5-isoxazolyl]phenyl] Acetamide]
  IC50: ≤ 10 µM

## O=C(Nc1cccc(-c2noc(-c3c(Cl)cccc3Cl)n2)c1)C(Cl)Cl [Compound 87, 2,2-Dichloro-N-[3-[5-(2,6-dichlorophenyl)-3-(1,2,4-oxadiazolyl)]phenyl] Acetamide]
  IC50: ≤ 10 µM

## O=C(Nc1cccc(-c2cc(-c3c(C4CC4)cccc3C(F)(F)F)no2)c1)C(Cl)Cl [Compound 89, 2,2-Dichloro-N-[3-[3-(2-cyclopropyl-6-trifluoromethylphenyl)-5-isoxazolyl]phenyl] Acetamide]
  IC50: ≤ 10 µM

## COc1cccc(C)c1-c1cc(-c2cccc(NC(=O)C(Cl)Cl)c2)on1 [Compound 91, 2,2-Dichloro-N-[3-[3-(2-methoxy-6-methylphenyl)-5-isoxazolyl]phenyl] Acetamide]
  IC50: ≤ 10 µM

## CC(C)c1cccc(C(F)(F)F)c1-c1cc(-c2cccc(NC(=O)C(Cl)Cl)c2)on1 [Compound 93, 2,2-Dichloro-N-[3-[3-(2-isopropyl-6-trifluoromethylphenyl)-5-isoxazolyl]phenyl] Acetamide]
  IC50: ≤ 10 µM

## O=C(Nc1cccc(-c2cc(-c3c(Cl)cccc3OCCN3CCOCC3)no2)c1)C(Cl)Cl [Compound 95, 2,2-Dichloro-N-[3-[3-[2-chloro-6-(N-morpholino-2-ethyleneoxy)phenyl]-5-isoxazolyl]-phenyl] Acetamide]
  IC50: ≤ 10 µM
